pIC50: −log10 of the molar value.

Sequence of ATP-dependent translocase ABCB1 (P08183 whole entry): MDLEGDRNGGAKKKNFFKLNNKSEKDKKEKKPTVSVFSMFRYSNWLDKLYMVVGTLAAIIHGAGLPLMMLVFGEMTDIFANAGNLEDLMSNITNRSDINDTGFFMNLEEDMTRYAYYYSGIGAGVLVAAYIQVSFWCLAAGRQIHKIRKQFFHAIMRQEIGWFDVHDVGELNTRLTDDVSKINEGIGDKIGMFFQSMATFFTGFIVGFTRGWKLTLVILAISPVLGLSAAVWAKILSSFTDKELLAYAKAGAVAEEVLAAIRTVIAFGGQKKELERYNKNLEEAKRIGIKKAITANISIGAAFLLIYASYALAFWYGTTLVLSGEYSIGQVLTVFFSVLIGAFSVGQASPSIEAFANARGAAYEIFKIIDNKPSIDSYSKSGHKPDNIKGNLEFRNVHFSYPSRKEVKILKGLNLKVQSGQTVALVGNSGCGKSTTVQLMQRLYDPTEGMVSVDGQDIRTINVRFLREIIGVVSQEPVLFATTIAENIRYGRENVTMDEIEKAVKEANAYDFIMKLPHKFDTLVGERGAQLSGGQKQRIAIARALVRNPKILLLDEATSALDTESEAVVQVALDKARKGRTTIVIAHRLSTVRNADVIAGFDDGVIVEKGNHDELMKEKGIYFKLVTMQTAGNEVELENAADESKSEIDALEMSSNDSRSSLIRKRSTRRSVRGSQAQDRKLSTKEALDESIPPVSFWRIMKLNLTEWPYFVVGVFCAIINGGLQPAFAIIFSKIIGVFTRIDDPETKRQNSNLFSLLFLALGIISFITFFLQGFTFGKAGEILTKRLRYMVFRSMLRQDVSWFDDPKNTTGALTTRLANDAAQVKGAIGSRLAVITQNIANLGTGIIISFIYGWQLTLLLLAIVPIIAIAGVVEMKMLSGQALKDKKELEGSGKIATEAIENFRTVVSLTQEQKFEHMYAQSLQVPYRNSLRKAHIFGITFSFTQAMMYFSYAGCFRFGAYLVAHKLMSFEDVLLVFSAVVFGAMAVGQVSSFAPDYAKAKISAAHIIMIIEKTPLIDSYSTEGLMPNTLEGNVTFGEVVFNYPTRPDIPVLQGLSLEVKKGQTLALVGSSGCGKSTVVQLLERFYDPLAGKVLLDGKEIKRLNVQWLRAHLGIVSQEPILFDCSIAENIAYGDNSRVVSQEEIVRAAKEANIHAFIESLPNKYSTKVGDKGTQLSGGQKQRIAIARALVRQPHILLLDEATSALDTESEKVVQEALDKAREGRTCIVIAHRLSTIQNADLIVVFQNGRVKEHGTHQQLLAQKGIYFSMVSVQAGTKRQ

The first data set has as its target T1, Broad substrate specificity ATP-binding cassette transporter ABCG2 (Homo sapiens, UniProt Q9UNQ0).
T1 sequence (Q9UNQ0 whole entry): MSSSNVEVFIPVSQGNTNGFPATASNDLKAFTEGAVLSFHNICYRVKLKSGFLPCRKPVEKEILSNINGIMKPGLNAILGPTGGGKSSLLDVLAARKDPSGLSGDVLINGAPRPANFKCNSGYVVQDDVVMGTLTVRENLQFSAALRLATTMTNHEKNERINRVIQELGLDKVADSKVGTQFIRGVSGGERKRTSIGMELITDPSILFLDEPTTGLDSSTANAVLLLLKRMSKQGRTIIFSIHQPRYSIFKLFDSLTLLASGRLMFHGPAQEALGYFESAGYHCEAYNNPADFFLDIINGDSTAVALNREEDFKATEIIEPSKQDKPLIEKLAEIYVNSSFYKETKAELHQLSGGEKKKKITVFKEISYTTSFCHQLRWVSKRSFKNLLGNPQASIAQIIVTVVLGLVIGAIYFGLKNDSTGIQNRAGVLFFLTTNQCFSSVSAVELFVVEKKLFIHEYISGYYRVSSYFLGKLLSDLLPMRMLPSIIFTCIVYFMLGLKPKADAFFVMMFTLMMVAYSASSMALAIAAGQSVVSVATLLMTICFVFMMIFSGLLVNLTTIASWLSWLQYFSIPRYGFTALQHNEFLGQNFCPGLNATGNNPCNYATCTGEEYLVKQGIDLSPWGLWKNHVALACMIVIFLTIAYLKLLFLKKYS
The data set can be described thus: Inhibition of ABCG2 in human mitoxantrone-resistant MCF7 cells by Hoechst 33342 assay using one phase exponential association analysis. It counts as cell-based.
Conditions: not given; call rule not given here
Compound `O=C(Nc1ccccc1C(=O)Nc1ccc(CCN2CCc3ccccc3C2)cc1)c1cnc2ccccc2c1` gave a negative-log IC50 (pIC50) of 6.17.

The next data set has as its target T1, Broad substrate specificity ATP-binding cassette transporter ABCG2. The data set can be described thus: Inhibition of ABCG2 in human mitoxantrone-resistant MCF7 cells by Hoechst 33342 assay using linear regression analysis. It counts as cell-based.
Conditions: not given
With `O=C(Nc1ccccc1C(=O)Nc1ccc(CCN2CCc3ccccc3C2)cc1)c1cnc2ccccc2c1`, the negative-log IC50 (pIC50) was 6.08.

For another data set the target is unchanged. The data set can be described thus: Inhibition of ABCG2 in human mitoxantrone-resistant MCF7 cells at 5.6 uM by Hoechst 33342 assay. The class given is cell-based. The note with it: mcf7, 5.6 µM.
Turning to `O=C(Nc1ccccc1C(=O)Nc1ccc(CCN2CCc3ccccc3C2)cc1)c1cnc2ccccc2c1`, the result was Active.

Another data set concerns the target ATP-dependent translocase ABCB1 (Homo sapiens, UniProt P08183). The data set can be described thus: Inhibition of P-gp in human adriamycin-resistant A2780 cells by Hoechst 33342 assay. It counts as cell-based.
Conditions: not given
`COc1cc2c(cc1OC)CN(CCc1ccc(NC(=O)c3ccccc3)cc1)CC2` had a negative logarithm of the IC50 (pIC50) of 5.32. Same read-out and setting: the value for `COc1cc2c(cc1OC)CN(CCc1ccc(NC(=O)C3Oc4ccccc4O3)cc1)CC2` was 5.85.

The compound `COc1cc2c(cc1OC)CN(CCc1ccc(NC(=O)c3cc(OC)c(OC)cc3NC(=O)c3cnc4ccccc4c3)cc1)CC2` had a pIC50 of 7.14.

The target of the next data set is T1, Broad substrate specificity ATP-binding cassette transporter ABCG2. The data set can be described thus: Inhibition of ABCG2 in human mitoxantrone-resistant MCF7 cells by Hoechst 33342 assay.
Conditions: not given
The class given is cell-based.
Take `COc1cc2c(cc1OC)CN(CCc1ccc(NC(=O)c3cccnc3)cc1)CC2`: the pIC50 was 4.35.

Compound `COc1cc2c(cc1OC)CN(CCc1ccc(NC(=O)c3cnc4ccccc4c3)cc1)CC2` gave a pIC50 of 4.62. The same measure, in the same setting: the value for `O=C(Nc1ccc(CCN2CCc3ccccc3C2)cc1)c1ccc([N+](=O)[O-])cc1` was 5.18. Same read-out and setting: the value for `COc1cc2c(cc1OC)CN(CCc1ccc(NC(=O)c3ccccc3)cc1)CC2` was 4.61; that for `O=C(Nc1ccc(CCN2CCc3ccccc3C2)cc1)c1cnc2ccccc2c1` was 5.30.

`COc1cc2c(cc1OC)CN(CCc1ccc(NC(=O)c3ccccc3NC(=O)c3ccccc3)cc1)CC2` had a pIC50 of 5.40. Same read-out and setting: the value for `COC(=O)[C@H]1[C@H]2C[C@@H]3c4[nH]c5cc(OC)ccc5c4CCN3C[C@H]2C[C@@H](OC(=O)c2cc(OC)c(OC)c(OC)c2)[C@@H]1OC` [RESERPINE] was 4.58. For `COc1cc2c(cc1OC)CN(CCc1ccc(NC(=O)c3ccccc3NC(=O)c3ccc(C)cc3)cc1)CC2`, the pIC50 was 5.41. In turn, `O=C(Nc1ccccc1C(=O)Nc1ccc(CCN2CCc3ccccc3C2)cc1)c1cnc2ccccc2c1` showed a negative-log IC50 (pIC50) of 6.00. Still for that read-out and setting: next, `COc1cc2c(cc1OC)CN(CCc1ccc(NC(=O)c3ccnc4ccccc34)cc1)CC2`: 4.44; `Nc1ccccc1C(=O)Nc1ccc(CCN2CCc3ccccc3C2)cc1`: 4.13. Still for that read-out and setting: the value for `COc1cc2c(cc1OC)CN(CCc1ccc(NC(=O)c3ccc([N+](=O)[O-])cc3)cc1)CC2` was 5.12; that for `O=C(Nc1ccc(CCN2CCc3ccccc3C2)cc1)c1ccccc1[N+](=O)[O-]` was 4.10. On the same count and under the same terms, the value for `COc1cc2c(cc1OC)CN(CCc1ccc(NC(=O)c3ccc(Br)cc3)cc1)CC2` was 4.94. `COc1cc2c(cc1OC)CN(CCc1ccc(NC(=O)c3ccc4ccccc4c3)cc1)CC2` had a negative-log IC50 (pIC50) of 5.14. Still for that read-out and setting: next, `COc1ccc([C@@H]2Sc3ccccc3N(CCN(C)C)C(=O)[C@@H]2OC(C)=O)cc1` [DILTIAZEM]: 3.07; `COc1ccc(C(=O)Nc2ccc(CCN3CCc4cc(OC)c(OC)cc4C3)cc2)cc1OC`: 4.32.

On to `COc1cc2c(cc1OC)CN(CCc1ccc(NC(=O)c3cnc4ccccc4n3)cc1)CC2`, for which the negative-log IC50 (pIC50) was 5.22. On the same count and under the same terms, the value for `COc1ccc(CCN(C)CCCC(C#N)(c2ccc(OC)c(OC)c2)C(C)C)cc1OC` (stereo unspecified) was 3.28.

In the case of `COc1cc2c(cc1OC)CN(CCc1ccc(NC(=O)C3Oc4ccccc4O3)cc1)CC2`, the pIC50 was 4.82. In turn, `Nc1ccc(C(=O)Nc2ccc(CCN3CCc4ccccc4C3)cc2)cc1` had a pIC50 of 4.11. Still for that read-out and setting: next, `COc1cc2c(cc1OC)CN(CCc1ccc(NC(=O)c3cc(OC)c(OC)cc3NC(=O)c3cnc4ccccc4c3)cc1)CC2`: 5.84; `COC(=O)C1=C(C)NC(C)=C(C(=O)OCCN(C)Cc2ccccc2)C1c1cccc([N+](=O)[O-])c1` (stereo unspecified) [NICARDIPINE]: 4.78; `COc1cc2c(cc1OC)CN(CCc1ccc(NC(=O)c3cccc4ccccc34)cc1)CC2`: 4.89.

For `COc1cc2c(cc1OC)CN(CCc1ccc(NC(=O)c3cc4ccccc4cn3)cc1)CC2`, the pIC50 was 5.22. For the compound `COc1cc2c(cc1OC)CN(CCc1ccc(NC(=O)c3cccc(Br)c3)cc1)CC2`, the pIC50 is 4.64. Still for that read-out and setting: the value for `CC(=O)[C@H]1CC[C@H]2[C@@H]3CCC4=CC(=O)CC[C@]4(C)[C@H]3CC[C@]12C` [PROGESTERONE] was 3.90.

`COc1cc2c(cc1OC)CN(CCc1ccc(NC(=O)c3ccc4ncccc4c3)cc1)CC2` gave a negative logarithm of the IC50 (pIC50) of 4.84. On the same count and under the same terms, the value for `COc1cc2c(cc1OC)CN(CCc1ccc(NC(=O)c3ccccc3Br)cc1)CC2` was 4.66. In turn, `COc1cc2c(cc1OC)CN(CCc1ccc(NC(=O)c3cc(OC)c(OC)cc3[N+](=O)[O-])cc1)CC2` gave a negative logarithm of the IC50 (pIC50) of 4.19. Still for that read-out and setting: next, `COc1cc2c(cc1OC)CN(CCc1ccc(NC(=O)c3ccccc3[N+](=O)[O-])cc1)CC2`: 3.96; `COc1cc2c(cc1OC)CN(CCc1ccc(NC(=O)c3ccccc3N)cc1)CC2`: 4.07; `COc1cc2c(cc1OC)CN(CCc1ccc(NC(=O)c3ccc(N)cc3)cc1)CC2`: 3.58. The compound `COc1cc2c(cc1OC)CN(CCc1ccc(NC(=O)c3ccccc3NC(=O)c3cnc4ccccc4c3)cc1)CC2` showed a pIC50 of 5.30. The same measure, in the same setting: next, `COc1ccc(C(=O)Nc2ccccc2C(=O)Nc2ccc(CCN3CCc4cc(OC)c(OC)cc4C3)cc2)cc1OC`: 5.68.

What is called pIC50 is the negative decadic logarithm of the IC50, by convention in mol/L. Low readings indicate a large IC50, high ones a small IC50.

The values are drawn from ChEMBL document CHEMBL1156730, “Structure-activity relationships of new inhibitors of breast cancer resistance protein (ABCG2)” (Bioorg Med Chem, 2008).
